Measured values from patent publication US10376520B2, “Methods for the treatment of cardiovascular disorders” (Galapagos NV, priority 2015, dated 2019).

What was measured:
RA patients [1] = test: Disease Activity Score 28 (DAS28(CRP)), Study 1; type: in vivo, human
Text: As used herein, the term ‘DAS28(CRP)’ refers to a clinical scoring ranging from 2.0 to 10.0 to measure the disease status at a given point in time, and thereby follow the progress and improvement of rheumatoid arthritis in a patient, and includes a 28 tender and swollen joint count, CRP measurement from blood analysis, and a general health assessment on a visual analog scale. A DAS28(CRP) value below 2.6 is indicative of remission, A DAS28(CRP) between 2.6 and 3.2 is indicative of low disease activity, between 3.2 and 5.1 is indicative of moderate disease activity, whereas a DAS28(CRP) above 5.1 is linked to high disease activity. (Wells et al., 2008)
Double-blind, placebo-controlled add on study in subjects with moderately to severely active RA who have an inadequate response to methotrexate (MTX) (oral or parenteral).
Compound 1 (dosed as a [Compound 1:HCl:3H2O]) is dosed for twelve weeks once daily (q.d.) (50 mg, 100 mg or 200 mg) or twice daily (b.i.d.) (25 mg, 50 mg or 100 mg); or placebo.
At Week 12, the subjects on placebo who have not achieved 20% improvement in swollen joint count (SJC66) and tender joint count (TJC68) are re-randomized automatically to receive Compound 1 (dosed as a [Compound 1:HCl:3H2O]) either at 100 mg q.d. or 50 mg b.i.d. doses in a blinded fashion; subjects on 50 mg q.d. who have not achieved 20% improvement in SJC66 and TJC68 will be assigned to 100 mg q.d. and subjects on 25 mg b.i.d. that have not achieved a 20% improvement in SJC66 and TJC68 will be assigned to 50 mg b.i.d. Subjects who switch treatment at week 12 are handled as if they discontinued at week 12 for the purpose of statistical analysis, whereas subjects in the other groups will maintain their randomized treatment until Week 24.
The (DAS28(CRP)) is a system developed and validated by the European League Against Rheumatism (EULAR) to measure the progress and improvement of rheumatoid arthritis and has been extensively validated (Wells et al., 2008). The DAS28(CRP) scoring includes a 28 tender and swollen joint count, CRP measurement from blood analysis, and a general health assessment on a visual analog scale (Fransen et al., 2003).
DAS28(CRP) values range from 2.0 to 10.0, and more particularly reflect the following status: • Remission: DAS28(CRP)≤2.6 • Low Disease activity: 2.6<DAS28(CRP)≤3.2 • Moderate Disease Activity: 3.2<DAS28(CRP)≤5.1 • High Disease Activity: DAS28(CRP)>5.1
In practice, the DAS28(CRP) measurement involves the evaluation 28 different joints including in the measurement (proximal interphalangeal joints (10 joints), metacarpophalangeal joints (10), wrists (2), elbows (2), shoulders (2), and knees (2)). When looking at these joints, both the number of joints with tenderness upon touching and swelling are counted.
Firstly, the patient is asked to make a vertical mark on a 100 mm Visual Analog Scale (VAS) corresponding to their general health or global disease activity. Using an electronic touchscreen, the mark is measured from the left-hand side in mm to obtain the VAS value, which is used in the formula below.
Secondly, a swollen and tender joint examination is then performed on the patient. The swollen and tender joints are recorded. From this examination are obtained the total amount of swollen joints (SJC) and the total amount of tender joints (TJC), which are used in the formula below.
Thirdly, C-reactive protein (CRP) levels (in mg/dL) are measured.
Finally, the values obtained above (VAS, JTC28, SJC28, and CRP) are computed into the following Formula to obtain the DAS28(CRP) score.
The number of subjects (N) provided in each groups corresponds to the number of patients starting the study in each group, and the DAS28 (CRP) data reported below corresponds to the responding patients continuing for the entire 24 weeks on their initial treatment course.

RA patients [2] = test: Plasma total cholesterol level (Selectra autoanalyzer), Study 4; type: in vivo, human; conditions: for Total cholesterol level, 4 weeks CFB: 4 weeks change from baseline
Description: Randomized double-blind, placebo-controlled add on study in subjects with active RA who have an inadequate response to MTX monotherapy, in combination with methotrexate, administered for 4 weeks in the treatment of subjects with active rheumatoid arthritis who have an inadequate response to methotrexate alone.
Compound 1 (dosed as a [Compound 1:HCl:3H2O]) capsules administered orally in 30 mg, 75 mg, 150 mg, or 300 mg doses per day for 4 weeks.
Triglycerides, [HDL] cholesterol, and plasma cholesterol were measured on the Selectra autoanalyzer (Sopachem BV, 44-RI Straat 33, 4051 AP Ochten, The Netherlands). All assays were commercially available from DiaSys Diagnostic Systems GmbH, Alte Strasse 9, 65558 Holzheim, Germany. […]

With O=C(Nc1nc2cccc(-c3ccc(CN4CCS(=O)(=O)CC4)cc3)n2n1)C1CC1 [Compound 1, cyclopropanecarboxylic acid {5-[4-(1,1-dioxo-thiomorpholin-4-ylmethyl)-phenyl]-[1,2,4]triazolo[1,5-a]pyridin-2yl}-amide] the “DAS28(CRP) mean CFB (LOCF) - 24 weeks results” value (RA patients [1]; 50 mg q.d., Week 24) was −1.98, the “DAS28(CRP) mean CFB (LOCF) - 12 weeks results” value (RA patients [1]; 50 mg q.d., week 1) was −0.65 and the “DAS28(CRP) mean CFB (LOCF) - 24 weeks results” value (RA patients [1]; 50 mg q.d., week 1) was −0.65. For the same molecule, the “DAS28(CRP) mean CFB (LOCF) - 12 weeks results” value (RA patients [1]; 50 mg q.d., week 2) was −0.94, the “DAS28(CRP) mean CFB (LOCF) - 24 weeks results” value (RA patients [1]; 50 mg q.d., week 2) was −0.94 and the “DAS28(CRP) mean CFB (LOCF) - 24 weeks results” value (RA patients [1]; 50 mg q.d., week 4) was −1.28. The “DAS28(CRP) mean CFB (LOCF) - 12 weeks results” value (RA patients [1]; 50 mg q.d., week 12) was −1.75, the “DAS28(CRP) mean CFB (LOCF) - 24 weeks results” value (RA patients [1]; 50 mg q.d., week 12) was −1.75 and the “DAS28(CRP) mean CFB (LOCF) - 24 weeks results” value (RA patients [1]; 100 mg q.d., week 1) was −1.00. The “DAS28(CRP) mean CFB (LOCF) - 12 weeks results” value (RA patients [1]; 100 mg q.d., week 2) was −1.50, the “DAS28(CRP) mean CFB (LOCF) - 24 weeks results” value (RA patients [1]; 100 mg q.d., week 16) was −2.51 and the “DAS28(CRP) mean CFB (LOCF) - 24 weeks results” value (RA patients [1]; 100 mg q.d., week 24) was −2.70. For the same molecule, the “% patients reaching low disease activity and/or remission at week 24 (LOCF)” value (RA patients [1]; 200 mg q.d.) was 52%, the “DAS28(CRP) mean CFB (LOCF) - 24 weeks results” value (RA patients [1]; 200 mg q.d., week 1) was −1.17 and the “DAS28(CRP) mean CFB (LOCF) - 24 weeks results” value (RA patients [1]; 200 mg q.d., week 2) was −1.52. The “DAS28(CRP) mean CFB (LOCF) - 12 weeks results” value (RA patients [1]; 200 mg q.d., week 8) was −2.30, the “DAS28(CRP) mean CFB (LOCF) - 24 weeks results” value (RA patients [1]; 200 mg q.d., week 16) was −2.70 and the “DAS28(CRP) mean CFB (LOCF) - 24 weeks results” value (RA patients [1]; 200 mg q.d., week 24) was −2.80. For the same molecule, the “% patients reaching low disease activity and/or remission at week 24 (LOCF)” value (RA patients [1]; 2 × 25 mg b.i.d.) was 49%, the “DAS28(CRP) mean CFB (LOCF) - 12 weeks results” value (RA patients [1]; 2 × 25 mg b.i.d., Week 1) was −0.68 and the “DAS28(CRP) mean CFB (LOCF) - 24 weeks results” value (RA patients [1]; 2 × 25 mg b.i.d., Week 1) was −0.68. For the same molecule, the “DAS28(CRP) mean CFB (LOCF) - 12 weeks results” value (RA patients [1]; 2 × 25 mg b.i.d., Week 4) was −1.45, the “DAS28(CRP) mean CFB (LOCF) - 24 weeks results” value (RA patients [1]; 2 × 25 mg b.i.d., Week 4) was −1.45 and the “DAS28(CRP) mean CFB (LOCF) - 12 weeks results” value (RA patients [1]; 2 × 25 mg b.i.d., Week 8) was −1.82. The “DAS28(CRP) mean CFB (LOCF) - 24 weeks results” value (RA patients [1]; 2 × 25 mg b.i.d., Week 8) was −1.82, the “DAS28(CRP) mean CFB (LOCF) - 12 weeks results” value (RA patients [1]; 2 × 50 mg b.i.d., Week 1) was −0.84 and the “DAS28(CRP) mean CFB (LOCF) - 24 weeks results” value (RA patients [1]; 2 × 50 mg b.i.d., Week 1) was −0.84. The “DAS28(CRP) mean CFB (LOCF) - 12 weeks results” value (RA patients [1]; 2 × 50 mg b.i.d., Week 12) was −2.10, the “DAS28(CRP) mean CFB (LOCF) - 24 weeks results” value (RA patients [1]; 2 × 50 mg b.i.d., Week 12) was −2.10 and the “DAS28(CRP) mean CFB (LOCF) - 24 weeks results” value (RA patients [1]; 2 × 50 mg b.i.d., Week 20) was −2.40. For the same molecule, the “DAS28(CRP) mean CFB (LOCF) - 24 weeks results” value (RA patients [1]; 2 × 50 mg b.i.d., Week 24) was −2.40, the “DAS28(CRP) mean CFB (LOCF) - 12 weeks results” value (RA patients [1]; 2 × 100 mg b.i.d., Week 8) was −2.72 and the “DAS28(CRP) mean CFB (LOCF) - 24 weeks results” value (RA patients [1]; 2 × 100 mg b.i.d., Week 8) was −2.72. For the same molecule, the “Total cholesterol level, 4 weeks CFB” value (RA patients [2]; 30 mg q.d.) was 25.9%, the Total cholesterol level, Baseline (RA patients [2]; 30 mg q.d.) was 4.9 mM and the Total cholesterol level, week 4 (RA patients [2]; 30 mg q.d.) was 5.8 mM. For the same molecule, the “Total cholesterol level, 4 weeks CFB” value (RA patients [2]; 75 mg q.d.) was 5.2%, the Total cholesterol level, Baseline (RA patients [2]; 75 mg q.d.) was 4.9 mM and the Total cholesterol level, week 4 (RA patients [2]; 75 mg q.d.) was 5.1 mM. The “Total cholesterol level, 4 weeks CFB” value (RA patients [2]; 150 mg q.d.) was −1.2%, the Total cholesterol level, Baseline (RA patients [2]; 150 mg q.d.) was 5 mM and the Total cholesterol level, week 4 (RA patients [2]; 150 mg q.d.) was 5 mM. The “Total cholesterol level, 4 weeks CFB” value (RA patients [2]; 300 mg q.d.) was 19.4%, the Total cholesterol level, Baseline (RA patients [2]; 300 mg q.d.) was 4.7 mM and the Total cholesterol level, week 4 (RA patients [2]; 300 mg q.d.) was 5.7 mM.
